Source: patent US20250340567A1, “Next Generation Synthetic Transcription Factors” (WISCONSIN ALUMNI RESEARCH FOUNDATION, priority 2018, published 2025)

Tests used:
[1] = biological target: BRD4(1) first bromodomain (Homo sapiens, UniProt O60885); conditions: cited from earlier work
[2] = biological target: BRD4(2) second bromodomain (Homo sapiens, UniProt O60885); conditions: cited from earlier work
BET BD1 = conditions: cited from earlier work
BET BD2 = conditions: cited from earlier work
[3] = Stability of synthetic transcription factors on storage, followed by mass spectra; assay type: physicochemical; conditions: at 18° C., mass spectra (FIG. 2)
Experimental: In as little as 5 days at 18° C., SynTEF1 begins to break down (FIG. 2).
Other synthetic transcription factors having an ether bond as described herein between the bromodomain binding moiety and the linker also have shown improved stability.

BRD2 = BRD2 (Homo sapiens, UniProt P25440); conditions: cited from earlier work
BRD2, sequence (P25440 whole entry, species assumed): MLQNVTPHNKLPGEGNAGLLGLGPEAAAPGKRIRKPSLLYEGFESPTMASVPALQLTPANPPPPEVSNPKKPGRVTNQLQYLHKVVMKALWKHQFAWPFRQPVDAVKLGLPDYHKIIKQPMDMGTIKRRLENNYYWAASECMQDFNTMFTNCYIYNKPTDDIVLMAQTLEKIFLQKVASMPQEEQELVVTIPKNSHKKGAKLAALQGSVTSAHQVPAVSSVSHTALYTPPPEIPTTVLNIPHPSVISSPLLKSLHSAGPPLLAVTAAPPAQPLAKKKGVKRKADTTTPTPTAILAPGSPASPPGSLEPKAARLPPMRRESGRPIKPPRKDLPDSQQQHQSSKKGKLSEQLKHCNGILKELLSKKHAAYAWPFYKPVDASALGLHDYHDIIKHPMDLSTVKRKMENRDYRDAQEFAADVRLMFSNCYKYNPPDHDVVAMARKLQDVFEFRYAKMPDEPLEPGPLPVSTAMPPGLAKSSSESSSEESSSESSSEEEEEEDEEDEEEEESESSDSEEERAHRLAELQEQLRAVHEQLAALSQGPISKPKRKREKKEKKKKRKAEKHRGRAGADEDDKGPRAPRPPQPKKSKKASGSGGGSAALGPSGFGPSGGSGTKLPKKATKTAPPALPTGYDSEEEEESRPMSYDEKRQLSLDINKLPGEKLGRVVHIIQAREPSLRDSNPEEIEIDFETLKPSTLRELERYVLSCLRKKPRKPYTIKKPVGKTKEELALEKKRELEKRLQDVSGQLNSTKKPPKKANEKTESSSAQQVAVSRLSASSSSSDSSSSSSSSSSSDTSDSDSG

BRD3 = BRD3 (Homo sapiens, UniProt Q15059); conditions: cited from earlier work
BRD3, sequence (Q15059 whole entry, species assumed): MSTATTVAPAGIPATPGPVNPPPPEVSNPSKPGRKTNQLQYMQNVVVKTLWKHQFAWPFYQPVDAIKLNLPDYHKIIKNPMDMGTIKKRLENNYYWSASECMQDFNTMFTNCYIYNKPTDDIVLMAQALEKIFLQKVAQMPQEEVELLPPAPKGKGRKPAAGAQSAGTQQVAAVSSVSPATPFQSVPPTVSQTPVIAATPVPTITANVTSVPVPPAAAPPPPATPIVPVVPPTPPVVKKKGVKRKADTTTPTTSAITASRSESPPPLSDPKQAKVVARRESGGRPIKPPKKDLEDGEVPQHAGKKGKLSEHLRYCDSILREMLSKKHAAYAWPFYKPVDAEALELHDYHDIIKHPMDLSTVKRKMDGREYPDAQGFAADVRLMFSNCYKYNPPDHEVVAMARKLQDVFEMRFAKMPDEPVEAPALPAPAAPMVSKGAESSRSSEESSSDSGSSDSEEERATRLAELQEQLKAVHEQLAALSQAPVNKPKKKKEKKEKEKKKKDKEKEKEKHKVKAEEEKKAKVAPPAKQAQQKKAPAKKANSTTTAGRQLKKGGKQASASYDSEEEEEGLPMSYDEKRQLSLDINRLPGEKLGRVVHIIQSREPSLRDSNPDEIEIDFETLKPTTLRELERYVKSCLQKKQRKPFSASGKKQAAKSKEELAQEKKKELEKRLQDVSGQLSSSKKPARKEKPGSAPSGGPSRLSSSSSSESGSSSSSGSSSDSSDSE

BET bromodomain = conditions: read-out: IC50 BET bromodomain; cited from earlier work

For Cc1sc2c(c1C)C(c1ccc(Cl)cc1)=N[C@@H](CC(=O)NC(C)(C)C)c1nnc(C)n1-2 [(+)-JQ1], the IC50 [1] is given as 77 nM and the IC50 [2] is given as 33 nM.
In the case of COc1cc(OC)c2c(=O)[nH]c(-c3cc(C)c(OCCO)c(C)c3)nc2c1 [RVX208], the IC50 (BET BD1) is listed as 87000 nM and the IC50 (BET BD2) is listed as 510 nM.
In the case of Cc1sc2c(c1C)C(c1ccc(Cl)cc1)=N[C@@H](CC(=O)NCCOCCOCCOCCOCCOCCOCCC(=O)NCCCN(C)CCCNC(=O)CCNC(=O)c1nc(NC(=O)CCNC(=O)c3cc(NC(=O)c4nc(NC(=O)CCNC(=O)c5cc(NC(=O)c6nccn6C)cn5C)cn4C)cn3C)cn1C)c1nnc(C)n1-2 [SynTEF1], the “time at which the compound begins to break down” value [3] is reported as ≤ 5 days.
In the case of CC(=O)N1c2ccc(-c3ccc(C(=O)O)cc3)cc2[C@H](Nc2ccc(Cl)cc2)C[C@@H]1C [I-BET726], the IC50 (BRD2) is given as 41 nM and the IC50 (BRD3) is given as 31 nM.
For CCNC(=O)C[C@@H]1N=C(c2ccc(Cl)cc2)c2cc(OC)ccc2-n2c(C)nnc21 [I-BET762], the IC50 (BET bromodomain) is given as 32.5 to 42.5 nM.
